Source: PubChem BioAssay (NCI)
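1) Cells in 96-well plates. 2) Compound, 48 h, 5 concentrations. 3) Linear interpolation between surrounding doses. 4) Unreached endpoint = highest concentration. Abbreviation: GI50, concentration required for 50% inhibition of growth. TGI is the concentration that stops growth completely.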

What was measured:
Test in all cases: growth of human tumour cells (NCI), 48 h
EKVX NSCLC = test system: EKVX NSCLC
BT-549 breast = test system: BT-549 breast
DU-145 prostate = test system: DU-145 prostate
U251 CNS = test system: U251 CNS
CCRF-CEM leukemia = test system: CCRF-CEM leukemia
NCI-H23 lung = test system: NCI-H23 lung
SK-MEL-28 melanoma = test system: SK-MEL-28 melanoma
OVCAR-3 ovarian = test system: OVCAR-3 ovarian
T-47D breast = test system: T-47D breast
OVCAR-8 ovarian = test system: OVCAR-8 ovarian

SMILES	TGI (EKVX NSCLC) [µM]	TGI (BT-549 breast) [µM]	TGI (DU-145 prostate) [µM]	TGI (U251 CNS) [µM]	TGI (CCRF-CEM leukemia) [µM]	TGI (NCI-H23 lung) [µM]	TGI (SK-MEL-28 melanoma) [µM]	TGI (OVCAR-3 ovarian) [µM]	TGI (T-47D breast) [µM]	TGI (OVCAR-8 ovarian) [µM]	GI50 (OVCAR-8 ovarian) [µM]	GI50 (EKVX NSCLC) [µM]	GI50 (BT-549 breast) [µM]	GI50 (DU-145 prostate) [µM]	GI50 (U251 CNS) [µM]	GI50 (NCI-H23 lung) [µM]	GI50 (SK-MEL-28 melanoma) [µM]	GI50 (OVCAR-3 ovarian) [µM]	GI50 (T-47D breast) [µM]	GI50 (CCRF-CEM leukemia) [µM]
N#Cc1c(-c2ccc(F)cc2)c(-c2ccc(F)cc2)nn(CCO)c1=O	> 76.6	39.9	4.42	> 100	24.9	> 78.3	> 100	0.69	> 100	–	–	–	–	–	–	–	–	–	–	–
O=C1CC(C[C@H](O)C2CCCCC2O)CC(=O)N1Cc1ccccc1 (stereo partly drawn)	> 100	–	–	> 100	> 100	> 100	> 100	> 100	–	> 100	–	–	–	–	–	–	–	–	–	–
CCOC(=O)C(=Cc1cccc(Cl)c1)C(=O)OCC	14.3	5.07	5.4	15.9	–	6.45	3.26	3.6	4.26	12.8	3.37	3.75	2.06	2.21	4.47	2.32	1.62	1.86	1.78	–
O=c1cc(-c2ccccc2)[nH]c2c(S)cccc12	–	> 100	> 100	> 100	> 100	> 100	> 100	> 100	> 100	> 100	–	–	–	–	–	–	–	–	–	–
O=C1c2ccccc2C2(O)c3cc4ccccc4cc3OC12O (stereo not drawn)	> 100	–	–	> 100	> 100	> 100	> 100	> 100	–	> 100	–	–	–	–	–	–	–	–	–	–
CC(=O)n1c2c(c(=O)n1-c1ccccc1)S(=O)CCC2 (stereo not drawn)	> 100	–	–	> 100	26.4	> 100	> 100	> 100	–	> 100	–	–	–	–	–	–	–	–	–	–
CC1=C2CCCC2=C/C(=N/Nc2ccc([N+](=O)[O-])cc2[N+](=O)[O-])CC1	> 100	–	–	> 100	> 100	> 100	> 100	> 100	–	> 100	–	–	–	–	–	–	–	–	–	–
O=[N+]([O-])c1ccc(-n2nnc(C3=NCCN3)c2-c2ccc(Cl)cc2)cc1	> 100	–	–	> 100	> 100	> 100	> 100	> 100	–	> 100	–	–	–	–	–	–	–	–	–	–
O=c1n(-c2ccccc2)c(=O)n2n1C1C=CC2C2C(C1)C2(Cl)Cl (stereo not drawn)	> 100	–	–	> 100	> 100	–	–	> 100	–	> 100	–	–	–	–	–	–	–	–	–	–
O=C(O)CSc1n[nH]c(-c2ccccc2)n1	> 100	–	–	> 100	> 100	> 100	> 100	> 100	–	> 100	–	–	–	–	–	–	–	–	–	–
COC1[C@@H](OC(C)=O)[C@@H](NC(=O)C(Cl)(Cl)Cl)C(I)[C@@H](N2C(=O)c3ccccc3C2=O)[C@H]1OC (stereo partly drawn)	> 100	–	–	> 100	> 100	> 100	> 100	–	–	> 100	–	–	–	–	–	–	–	–	–	–
CCc1c(OC(C)=O)c2c(NC3OC(COC(C)=O)C(OC(C)=O)C(OC(C)=O)C3OC(C)=O)nc(OC)nc2oc1=O (stereo not drawn)	> 100	–	–	> 100	> 100	> 100	–	> 100	–	> 100	–	–	–	–	–	–	–	–	–	–
Cc1c(Cl)cccc1N1C(=O)C(Cl)=C(Cl)C1=O	> 100	–	–	> 100	27.8	> 100	> 100	> 100	–	> 100	–	–	–	–	–	–	–	–	–	–
Cc1ccc(Cn2c(C)nc3c2C(=O)c2ccccc2C3=O)cc1	> 100	–	–	22.8	> 100	20.5	> 100	36.6	–	28	–	–	–	–	–	–	–	–	–	–
CCC1C2C=CC(CC2)N1S(=O)(=O)c1ccc(C)cc1 (stereo not drawn)	> 100	–	–	–	> 100	–	–	> 100	–	–	–	–	–	–	–	–	–	–	–	–
O=C(N/N=C1/C(=O)N(c2ccc(Cl)cc2Cl)C(=O)C(=O)C1c1nc2ccccc2o1)c1ccccc1O (stereo not drawn)	> 100	–	–	–	> 100	84.3	71	52.4	–	> 100	–	–	–	–	–	–	–	–	–	–
COc1ccc(/C(=N\NC(=O)C(N)=O)C(c2ccc(OC)cc2)C2(O)C(=O)Nc3c(Cl)cccc32)cc1 (stereo not drawn)	> 100	–	–	> 100	> 100	> 100	> 100	> 100	–	> 100	–	–	–	–	–	–	–	–	–	–
CCOC(=O)C(C)(C)Oc1ccc2c(C)c(-c3ccc(Cl)cc3)c(=O)oc2c1	> 100	–	–	> 100	> 100	> 100	> 100	> 100	–	> 100	–	–	–	–	–	–	–	–	–	–
CC(=O)O[C@H]1CCC2[C@@H]3CCC4=C(O)c5nocc5C[C@]4(C)C3CC[C@@]21C (stereo partly drawn)	> 100	–	–	> 100	> 100	> 100	> 100	> 100	–	> 100	–	–	–	–	–	–	–	–	–	–
O=C(NC(=O)c1cn(CCNCCO)c(=O)[nH]c1=O)OCc1ccccc1	> 100	–	–	> 100	> 100	> 100	> 100	> 100	–	> 100	–	–	–	–	–	–	–	–	–	–
Nc1c(C(=O)Nc2cccc(Br)c2)sc2nc3c(cc12)C(=O)CCC3	–	> 100	> 61.6	> 100	> 100	> 100	> 100	> 46.5	> 100	> 100	33.7	–	3.1	0.426	0.517	0.583	–	0.359	2.13	0.393
COc1ccc(-c2cc(-c3ccccc3)c(C#N)c(=O)n2C2OC(CO)C(O)C(O)C2O)cc1 (stereo not drawn)	> 100	–	–	> 100	> 100	> 100	> 100	> 100	–	> 100	–	–	–	–	–	–	–	–	–	–
CCCCCCNC(=O)c1nc(-c2ccccc2)oc1Cc1ccc(OP(=O)(O)O)cc1	–	32.7	22.3	29.9	67	35.4	30.1	31.4	30.8	45.6	20.2	–	16.8	10.2	15.7	16.7	15.9	17.1	16.5	24
